Laboratory results: patent publication US8969516B2, “Method of hydrolysis of peptide bond” (priority 2006, dated 2015)

Experiment: MALDI-TOF screening of Ni^2+ dependent hydrolysis in a combinatorial peptide library
Format: physicochemical
Settings: Ni^2+ 2 mM, pH 8.2, 10 mM Tris, score=24/tm
Outline: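 MALDI-TOF read-out: appearance of Ser/Thr-X-His-Z-Lys-Phe-Leu-NH2 product signals, plus loss of substrate signals, checked by eye at 2, 4, 6, 8 h. Conditions: 1 mM peptide mixture, 2 mM Ni2+, 10 mM Tris pH 8.2, 37 or 45 °C.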

[1] = CH3CO-Gly-Ala-Ser-X-His-Z-Lys-Phe-Leu-NH2 library, 37° C.
[2] = CH3CO-Gly-Ala-Ser-X-His-Z-Lys-Phe-Leu-NH2 library, 45° C.
[3] = CH3CO-Gly-Ala-Thr-X-His-Z-Lys-Phe-Leu-NH2 library, 37° C.
[4] = CH3CO-Gly-Ala-Thr-X-His-Z-Lys-Phe-Leu-NH2 library, 45° C.

Substance | hydrolysis score from MALDI-TOF screening [1] | hydrolysis score from MALDI-TOF screening [2] | hydrolysis score from MALDI-TOF screening [3] | hydrolysis score from MALDI-TOF screening [4]
Ac-GASIHAKFL-NH2 [SIHA] | 0 (a score of 0 if no trace of the product of hydrolysis was seen after 8 hours of incubation) | 0 (a score of 0 if no trace of the product of hydrolysis was seen after 8 hours of incubation) |  | 
Ac-GATMHTKFL-NH2 [TMHT] |  |  | 0 (a score of 0 if no trace of the product of hydrolysis was seen after 8 hours of incubation) | 0 (a score of 0 if no trace of the product of hydrolysis was seen after 8 hours of incubation)
Ac-GATVHFKFL-NH2 [TVHF] |  |  | 0 (a score of 0 if no trace of the product of hydrolysis was seen after 8 hours of incubation) | 0 (a score of 0 if no trace of the product of hydrolysis was seen after 8 hours of incubation)
Ac-GATFHTKFL-NH2 [TFHT] |  |  | 0 (a score of 0 if no trace of the product of hydrolysis was seen after 8 hours of incubation) | 0 (a score of 0 if no trace of the product of hydrolysis was seen after 8 hours of incubation)
Ac-GATTHAKFL-NH2 [TTHA] |  |  | 0 (a score of 0 if no trace of the product of hydrolysis was seen after 8 hours of incubation) | 0 (a score of 0 if no trace of the product of hydrolysis was seen after 8 hours of incubation)
Ac-GATAHYKFL-NH2 [TAHY] |  |  | 0 (a score of 0 if no trace of the product of hydrolysis was seen after 8 hours of incubation) | 0 (a score of 0 if no trace of the product of hydrolysis was seen after 8 hours of incubation)
Ac-GASNHSKFL-NH2 [SNHS] | 0 (a score of 0 if no trace of the product of hydrolysis was seen after 8 hours of incubation) | 0 (a score of 0 if no trace of the product of hydrolysis was seen after 8 hours of incubation) |  | 
Ac-GASMHAKFL-NH2 [SMHA] | 0 (a score of 0 if no trace of the product of hydrolysis was seen after 8 hours of incubation) | 3 (a score of 3 for detection at 8 hours) |  | 
Ac-GASVHMKFL-NH2 [SVHM] | 0 (a score of 0 if no trace of the product of hydrolysis was seen after 8 hours of incubation) | 0 (a score of 0 if no trace of the product of hydrolysis was seen after 8 hours of incubation) |  | 
Ac-GATNHWKFL-NH2 [TNHW] |  |  | 0 (a score of 0 if no trace of the product of hydrolysis was seen after 8 hours of incubation) | 3 (a score of 3 for detection at 8 hours)
Ac-GASYHGKFL-NH2 [SYHG] | 0 (a score of 0 if no trace of the product of hydrolysis was seen after 8 hours of incubation) | 0 (a score of 0 if no trace of the product of hydrolysis was seen after 8 hours of incubation) |  | 
Ac-GASPHTKFL-NH2 [SPHT] | 0 (a score of 0 if no trace of the product of hydrolysis was seen after 8 hours of incubation) | 0 (a score of 0 if no trace of the product of hydrolysis was seen after 8 hours of incubation) |  | 
Ac-GATFHNKFL-NH2 [TFHN] |  |  | 0 (a score of 0 if no trace of the product of hydrolysis was seen after 8 hours of incubation) | 0 (a score of 0 if no trace of the product of hydrolysis was seen after 8 hours of incubation)
Ac-GATQHIKFL-NH2 [TQHI] |  |  | 0 (a score of 0 if no trace of the product of hydrolysis was seen after 8 hours of incubation) | 3 (a score of 3 for detection at 8 hours)
Ac-GASVHSKFL-NH2 [SVHS] | 0 (a score of 0 if no trace of the product of hydrolysis was seen after 8 hours of incubation) | 0 (a score of 0 if no trace of the product of hydrolysis was seen after 8 hours of incubation) |  | 
Ac-GASMHKKFL-NH2 [SMHK] | 3 (a score of 3 for detection at 8 hours) | 6 (a score of 6 for detection at 4 hours) |  | 
Ac-GASAHQKFL-NH2 [SAHQ] | 0 (a score of 0 if no trace of the product of hydrolysis was seen after 8 hours of incubation) | 0 (a score of 0 if no trace of the product of hydrolysis was seen after 8 hours of incubation) |  | 
Ac-GASMHIKFL-NH2 [SMHI] | 4 (a score of 4 for detection at 6 hours) | 12 (a score of 12, if it was seen to be partially hydrolysed at 2 hours) |  | 
Ac-GATPHPKFL-NH2 [TPHP] |  |  |  | 0 (a score of 0 if no trace of the product of hydrolysis was seen after 8 hours of incubation)
Ac-GASLHYKFL-NH2 [SLHY] | 0 (a score of 0 if no trace of the product of hydrolysis was seen after 8 hours of incubation) | 3 (a score of 3 for detection at 8 hours) |  | 
Ac-GATTHSKFL-NH2 [TTHS] |  |  | 0 (a score of 0 if no trace of the product of hydrolysis was seen after 8 hours of incubation) | 0 (a score of 0 if no trace of the product of hydrolysis was seen after 8 hours of incubation)
Ac-GATNHTKFL-NH2 [TNHT] |  |  | 0 (a score of 0 if no trace of the product of hydrolysis was seen after 8 hours of incubation) | 0 (a score of 0 if no trace of the product of hydrolysis was seen after 8 hours of incubation)
Ac-GATSHSKFL-NH2 [TSHS] |  |  | 0 (a score of 0 if no trace of the product of hydrolysis was seen after 8 hours of incubation) | 0 (a score of 0 if no trace of the product of hydrolysis was seen after 8 hours of incubation)
Ac-GASMHVKFL-NH2 [SMHV] | 3 (a score of 3 for detection at 8 hours) | 6 (a score of 6 for detection at 4 hours) |  | 
Ac-GATPHYKFL-NH2 [TPHY] |  |  |  | 0 (a score of 0 if no trace of the product of hydrolysis was seen after 8 hours of incubation)
Ac-GASYHLKFL-NH2 [SYHL] | 4 (a score of 4 for detection at 6 hours) | 6 (a score of 6 for detection at 4 hours) |  | 
Ac-GATHHDKFL-NH2 [THHD] |  |  | 0 (a score of 0 if no trace of the product of hydrolysis was seen after 8 hours of incubation) | 0 (a score of 0 if no trace of the product of hydrolysis was seen after 8 hours of incubation)
Ac-GATNHEKFL-NH2 [TNHE] |  |  | 0 (a score of 0 if no trace of the product of hydrolysis was seen after 8 hours of incubation) | 0 (a score of 0 if no trace of the product of hydrolysis was seen after 8 hours of incubation)
Ac-GATMHDKFL-NH2 [TMHD] |  |  | 0 (a score of 0 if no trace of the product of hydrolysis was seen after 8 hours of incubation) | 0 (a score of 0 if no trace of the product of hydrolysis was seen after 8 hours of incubation)
Ac-GASFHEKFL-NH2 [SFHE] | 0 (a score of 0 if no trace of the product of hydrolysis was seen after 8 hours of incubation) | 3 (a score of 3 for detection at 8 hours) |  | 
